From patent publication US20220290200A1, “GENETICALLY MODIFIED HOST CELLS PRODUCING GLYCOSYLATED CANNABINOIDS” (OCTARINE BIO IVS, priority 2019, published 2022)
Like-named read-outs stand apart in the source and are kept apart here.

Experiments:
[1] = Caco-2 bi-directional permeability assay; type: in vitro ADME, human; settings: human
Method: (§1) Intestinal permeability of cannabinoids and glycosylated cannabinoids was determined by measuring bi-directional transport across Caco-2 cell membranes. Caco-2 cells are used as an in vitro model of the human intestinal epithelium and permit assessment of the intestinal permeability of potential drugs. The test compound is added to either the apical or basolateral side of a confluent monolayer of Caco-2 cells and permeability is measured by monitoring the appearance of the test compound on the opposite side of the monolayer using LC-MS/QTOF. When performing a bi-directional assay, the efflux ratio (ER) is calculated from the ratio of B−A and A−B permeabilities. Caco-2 cells obtained from the ATCC are used between passage numbers 40-60. Cells are seeded onto Millipore Multiscreen Transwell plates at 1×10^5 cells/cm2. The cells are cultured in DMEM and media is changed every two or three days. On day 20 the permeability study is performed. Cell culture and assay incubations are carried out at 37° C. in an atmosphere of 5% CO2 with a relative humidity of 95%. On the day of the assay, the monolayers are prepared by rinsing both apical and basolateral surfaces twice with Hanks Balanced Salt Solution (HBSS) at the desired pH warmed to 37° C. Cells are then incubated with HBSS at the desired pH in both apical and basolateral compartments for 40 min to stabilize physiological parameters. 10 mM solutions of cannabinoids and cannabinoid glycosides are prepared in DMSO then diluted with assay buffer to give a final test compound concentration of 10 μM (final DMSO concentration of 1% v/v). The fluorescent integrity marker lucifer yellow is also included in the solution.
(§2) Analytical standards are prepared from test compound DMSO dilutions and transferred to buffer, maintaining a 1% v/v DMSO concentration. For assessment of A−B permeability, HBSS is removed from the apical compartment and replaced with test compound solution. The apical compartment insert is then placed into a companion plate containing fresh buffer (containing 1% v/v DMSO). For assessment of B−A permeability, HBSS is removed from the companion plate and replaced with test compound solution. Fresh buffer (containing 1% v/v DMSO) is added to the apical compartment insert, which is then placed into the companion plate. At 120 min the apical compartment inserts and the companion plates are separated and apical and basolateral samples diluted for analysis. Test compound permeability is assessed in duplicate. Compounds of known permeability characteristics are run as controls on each assay plate. Test and control compounds are quantified by LC-MS/QTOF as described above. The starting concentration (C0) is determined from the solution and the experimental recovery calculated from C0 and both apical and basolateral compartment concentrations. The integrity of the monolayer throughout the experiment is checked by monitoring lucifer yellow permeation using fluorometric analysis. The permeability coefficient (Papp) for each compound is calculated from the following equation: Papp=(dQ/dt)/(C0×A) Where dQ/dt is the rate of permeation of the drug across the cells, C0 is the donor compartment concentration at time zero and A is the area of the cell monolayer. C0 is obtained from analysis of the dosing solution. The efflux ratio (ER) is calculated from mean Papp values from A−B and B−A data. This is derived from: ER=Papp(B−A)/Papp(A−B). The % recovery is calculated from the following equation; % recovery=(Total compound in donor and receiver compartment at end of experiment)/(initial compound present)×100.
(§3) CBD glycosides were produced using glycosyl transferases and purified as described above. […] Low recovery of compound in a Caco-2 permeability assay can indicate problems with poor solubility, binding of the compound to the plate, metabolism by the Caco-2 cells or accumulation of the compound in the cell monolayer.

Caco-2 cells = test: Caco-2 bi-directional permeability assay; type: in vitro ADME, human; settings: for efflux ratio compared to CBD / permeability coefficient (Papp) A to B and B to A compared to unmodified CBD: Caco-2, 10 μM; for efflux ratio compared to CBD / permeability coefficient (Papp) A to B and B to A compared to unmodified CBD / Mean recovery (%), Direction A→B / Mean Papp, Direction A→B / Mean recovery (%), Direction B→A / Mean Papp, Direction B→A: 120 min; for % recovery compared to CBD: Caco-2, both compartments; for Mean recovery (%), Direction A→B / Mean Papp, Direction A→B: apical to basolateral; for Mean Papp, Direction A→B / Mean Papp, Direction B→A: mean and standard deviation of duplicates; for Mean recovery (%), Direction B→A / Mean Papp, Direction B→A: basolateral to apical; for Efflux ratio: ratio of B−A and A−B permeabilities
Method: as §1, §2, §3

[2] = In vitro enzymatic cascade converting sucrose and CBD to CBD glycosides; type: biochemical; settings: enzymes added: GmSuSy, Cs73Y
Source text: In the previous examples, in vitro glycosyl transferase assays required the addition of an “activated” sugar (e.g. UDP-glucose), which is typically an extremely expensive reagent, furthermore, other activated sugars e.g. UDP-rhamnose are not available commercially and must be custom synthesized at high-cost and difficulty. […] To facilitate the low-cost production of cannabinoid glycosides not only with glucose, but with alternative sugars, an enzymatic cascade was set up to convert cannabinoids and the simple sugar sucrose into various cannabinoid glycosides. The cascade is divided into 3 steps, in step 1 sucrose and uridine diphosphate (UDP) is converted to UDP-glucose by GmSuSy (SEQ ID NO: 209, 210), additionally generating fructose as a bi-product. In step 2, UDP-glucose is interconverted to alternative UDP-sugars using a range of enzymes. For example, conversion of UDP-glucose to UDP-galactose by BsGa/E, multiple enzymes can also be used to produce UDP-sugars via other UDP-sugar intermediates. For example, conversion of UDP-glucose to UDP-glucuronic acid by AtUGDH1 combined with conversion of UDP-glucuronic acid to UDP-xylose by AtUXS3. In step 3, glycosyl transferases convert the activated sugar and a cannabinoid acceptor to the corresponding cannabinoid glycoside. For example, conversion of UDP-rhamnose and CBD to CBD-1′-O-β-D-rhamnoside (OB13) by Cs73Y (SEQ ID NO: 157, 158).
Enzymes were purified and the in vitro assay performed as described in Example 13 and the reaction mixture set up as shown in table 57. Enzymes and co-factors were added as required for each individual reaction. Samples were extracted and analyzed as stated above.

| SMILES | recovery at 120 min, 10 μM ([1]; Caco-2, apical to basolateral, 120 min, read-out: Mean recovery (%), Direction A→B) [%] | recovery at 120 min, 10 μM ([1]; Caco-2, basolateral to apical, 120 min, read-out: Mean recovery (%), Direction B→A) [%] | Papp A→B at 120 min, 10 μM ([1]; Caco-2, apical to basolateral, 120 min, mean and standard deviation of duplicates, read-out: Mean Papp, Direction A→B) [×10⁻⁶ cm/s] | Papp B→A at 120 min, 10 μM ([1]; Caco-2, basolateral to apical, 120 min, mean and standard deviation of duplicates, read-out: Mean Papp, Direction B→A) [×10⁻⁶ cm/s] | efflux ratio at 120 min, 10 μM ([1]; Caco-2, ratio of B−A and A−B permeabilities) | efflux ratio compared to CBD (Caco-2 cells) | permeability coefficient (Papp) A to B and B to A compared to unmodified CBD (Caco-2 cells) | % recovery compared to CBD (Caco-2 cells) | Mean recovery (%), Direction A→B (Caco-2 cells) [%] | Mean Papp, Direction A→B (Caco-2 cells) | Mean recovery (%), Direction B→A (Caco-2 cells) [%] | Mean Papp, Direction B→A (Caco-2 cells) | Efflux ratio (Caco-2 cells) | % Conversion of CBD and sucrose to CBD glycoside [2] [%] |
| --- | --- | --- | --- | --- | --- | --- | --- | --- | --- | --- | --- | --- | --- | --- |
| C=C(C)[C@@H]1CCC(C)=C[C@H]1c1c(O)cc(CCCCC)cc1O [CBD, cannabidiol, reference compound] | 16.4 | 48.8 | 0.61 ± 0.03 | 1.45 ± 0.64 | 2.37 |  |  |  |  |  |  |  |  |  |
| C=C(C)[C@@H]1CCC(C)=C[C@H]1c1c(O)cc(CCCCC)cc1O[C@@H]1O[C@H](CO)[C@@H](O)[C@H](O)[C@H]1O [OB1, CBD-1′-O-β-D-glucoside] |  |  |  |  |  | higher efflux ratio | significantly higher permeability coefficients in both directions | successively higher rates of recovery | 69.8 | 10.40 ± 0.31 10^−6 cms^−1 | 79.7 | 35.70 ± 0.34 10^−6 cms^−1 | 3.43 |  |
| C=C(C)[C@@H]1CCC(C)=C[C@H]1c1c(O[C@@H]2O[C@H](CO)[C@@H](O)[C@H](O)[C@H]2O)cc(CCCCC)cc1O[C@@H]1O[C@H](CO)[C@@H](O)[C@H](O)[C@H]1O [OB6, CBD-1′-O-β-D-glucosyl-3′-O-β-D-glucoside] |  |  |  |  |  | higher than both CBD and OB1 | permeability coefficients were lower | successively higher rates of recovery | 91.9 | 0.10 ± 0.05 10^−6 cms^−1 | 87.8 | 0.44 ± 0.17 10^−6 cms^−1 | 4.31 | 91.3 |
